Measurements published in patent US7745465B2, “Method of enhancing cellular production of molecular chaperone, hydroxylamine derivatives useful for enhancing the chaperone production and the preparation thereof” (CytRx Corporation, priority 1995, dated 2010).

How the values were obtained:
TNF treated WEHI 164 = assay: Protection of cells against cytotoxic cytokines (TNF); assay type: cell-based; conditions: WEHI 164 (and other mammalian) cells
hsp26 mRNA = assay: Northern blot of hsp26 mRNA in S. cerevisiae; assay type: cell-based, Saccharomyces cerevisiae; conditions: 10-100 μM for 5 min. to 1 hour at 25° C.
Description: To S. cerevisiae cells that were maintained at 25° C., varying concentration of N-[2-hydroxy-3-(1-piperidinyl)propoxy]-3-piridinecarboximidoyl chloride maleate was introduced (concentrations between 10 to 100 μM), cells were then incubated for one hour at 25° C. in the presence of N-[2-hydroxy-3-(1-piperidinyl)propoxy]-3-piridinecarboximidoyl chloride maleate. The temperature was then increased to 42° C., and the oxygraph measurements were taken as described in the Patriarca reference.
The cells treated with N-[2-hydroxy-3-(1-piperidinyl)propoxy]-3-pyridine carboximidoyl chloride maleate were tested for concomitant induction of hsp genes, using Northern Blotting procedure. The method of extracting, purifying mRNAs from eukaryotic cells, and analyzing the RNA thus obtained using Northern blotting procedure is well known in the art and described in Maniatis, and Maresca, et al. Archives Medial Research 24: 247-249 (1993), both of the references being fully incorporated herein. The Northern blotting protocol is also described in Example 7 set forth above. Hsp 26 and hsp70 DNA sequences were used as probes.

[1] = test system: H9c2 rat heart muscle cell; assay: Serum deprivation, cell viability by MTT test (H9c2); assay type: cell-based; conditions: serum deprived H9c2, 10^−5 M, control 100%, serum deprived alone 50.5%, read-out: relative cell viability
Description: (§1) Experiments were carried out using WEH1 mouse fibrosarcoma and H9c2 rat heart muscle cell lines divided into three groups: • control (10% FCS fetal calf serum) • serum deprived • N-[2-hydroxy-3-(1-piperidinyl)propoxy]-3-pyridinecarboximidoyl chloride maleate (10^−5 M) treated and serum deprived 1.2(i) Serum Deprivation and MTT Test
(§2) We have screened various cell lines, drug concentrations, pretreatment and deprivation times and we have found the most appropriate conditions as follows: […] H9c2 rat heart muscle cell (n=6) and WEHI mouse fibrosarcoma cell (n=7) have been plated on 24 well plates in 10% FCS DMEM (Dulbecco modified Eagle's medium) and incubated for 2 hours at 37 C, 5% CO2. Medium has been discarded and replaced by 10% FCS DMEM containing 10^−5 M N-[2-hydroxy-3-(1-piperidinyl)propoxy ]-3-pyridinecarboximidoyl chloride maleate. […] Cell viability was measured by MTT test based on the method of Plumb et al. (Cancer Res. 49: 4435-4444 (1989)) The tetrazolium salt method involving conversion of MTT (3-(4,5-dimethylthiazol-2yl)-2,5-diphenyltetrazolium bromide) to colored formazan by alive cells, served as an indirect measurement of cell viability. […] O.D. of the plates was read at 570 nm on an ELISA plate reader (Labsystems Multiskan Biochromatic type:348). […] Relative cell viability was calculated defining control group as 100%.

[2] = test system: WEHI mouse fibrosarcoma cell; assay: Serum deprivation, cell viability by MTT test (WEHI); assay type: cell-based; conditions: serum deprived WEHI, 10^−5 M, control 100%, serum deprived alone 74.8%, read-out: relative cell viability
Description: as §1, §2

Hsp72 = assay: hsp72 level of skin biopsy samples of STZ-diabetic rats (Western blot); assay type: in vivo, rat; conditions: 4% containing cream, topical
Description: (ii) Streptozotocin-induced diabetic (STZ) rats with partial-to full thickness thermal wounds created on bilateral thoracic depilated skin by electroheating probe (3 mm of diameter; 60° C.; for 30, 60 and 90 sec.), treated by topical application of 1%, 2% or 4% N-[2-hydroxy-3-(1-piperidinyl)propoxy]-3-piridinecarboximidoyl chloride maleate containing cream or vehicle were used to determine the wound healing in form of self-control, side to side comparison. Wound closure was recorded photographically and using the digital epiluminescence microscopic technique. Wound areas were measured by planimetry 48 h and 21 days after heat injury. Level of hsp72 of skin biopsy samples was determined using Western blot analysis.

HaCaT cells = assay: Protection of HaCaT keratinocytes against 48° C. heat exposure (viability); assay type: cell-based, human
Excerpt: HaCaT cell line is a spontaneously immortalized, ancuploid human keratinocyte cell line derived from normal human adult skin (Boukamp et al., J. Cell Biol. 106:761-771 (1988)), HaCaT is a cell line with full epidermal differentiation capacity, with normal keratinization and with nontumorogenic character. This rapidly multiplying keratinocyte line with high ditharnol sensitivity is also characterized by the presence of steroid receptors. HaCaT cells (4×10^5 cells per Petri-dish with a diameter of 35 mm) were seeded and grown in DMEM supplemented with 5% fetal calf serum (Gibco, Cat. No. 011-6290H) under a humidified atmosphere of 5% CO2 at 37° C. 24 hours after plating, the cultures were rinsed with PBS and treated by heat or light.
The confluent cultures of the cells were exposed to heat (42, 44, 46, 47, 48° C.) or UV light (UVA I, 2, 4, 6 J/cm^2). Heat exposure was provided in circulating water baths. As a UV light source, Waldmann PUVA 4000 was used with an energy spectrum of the final output between 320 an 390 nm, peaking at 365 nm. The energy output was monitored by an IL-1700 radiometer equipped with UVA and UVB sensor.
The morphology of the cells was monitored using phase contrast microscopy (Opton Axioplan Microscope, with Plan-Apochromat Ph phase contrast objectives). […]

AP-1 = AP-1 transcription factor activity in yeast cells; assay type: cell-based
Excerpt: It was also investigated if the activity of AP-1 and P 1 transcription factors can be modulated by N-[2-hydroxy-3-(1-piperidinyl)propoxy]-3-piridinecarboximidoyl chloride maleate in yeast cells exposed to various stress conditions.

O=C(O)/C=C\C(=O)O.OC(CON=C(Cl)c1cccnc1)CN1CCCCC1 (stereo not drawn) [N-[2-hydroxy-3-(1-piperidinyl)-propoxy]3-pyridinecarboximidoyl chloride maleate]
survival rate of TNF treated cells (TNF treated WEHI 164): increased the survival rate | induction of hsp 26 (hsp26 mRNA): induction of hsp 26 was observed | viability at 10 µM [1]: 82.8% | viability at 10 µM [2]: 93% | hsp72 level in skin biopsy samples compared to vehicle control (Hsp72): elevated the hsp72 level | increase in viability (HaCaT cells; combined treatment with 42° C. and compound, 24 hours after 48° C.): 140% | cell viability increased to (HaCaT cells; pre-treatment 5×10^-5 M for one hour, 24 hours after the 48° C. treatment): 84% | activity of AP-1 (AP-1; rich medium): decrease the activity of the factor | activity of AP-1 (AP-1; supply of nutrients inadequate): increases the activity of AP-1
